The results in this text go back to PubChem BioAssay AID328 (DTP/NCI, 2004).

This assay has as its system BDF1 mice, P388 leukemia ip, median survival T/C. Description: NCI In Vivo Anticancer Drug Screen. Data for tumor model P388 Leukemia (intraperitoneal) in B6D2F1 (BDF1) mice. Conditions: endpoint: median survival time, higher = longer survival. An outline of the steps: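 Transplantable tumour in mice; compound vs vehicle dosing; survival scored; ratio of treated to control reported.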

Where [1] appears, read: dose: 100.0 mg/kg/injection, schedule: Q01DX009 (ip), vehicle: Klucel (hydroxypropylcellulose) (HPC).
[2] abbreviates: dose: 100.0 mg/kg/injection, schedule: Q04DX003 (ip), vehicle: Klucel (hydroxypropylcellulose) (HPC).
The mark [3] stands for this setting: dose: 200.0 mg/kg/injection, schedule: Q01DX009 (ip), vehicle: Klucel (hydroxypropylcellulose) (HPC).
[4] abbreviates: dose: 200.0 mg/kg/injection, schedule: Q04DX003 (ip), vehicle: Klucel (hydroxypropylcellulose) (HPC).
Where [5] appears, read: dose: 400.0 mg/kg/injection, schedule: Q04DX003 (ip), vehicle: Klucel (hydroxypropylcellulose) (HPC).
Where [6] appears, read: dose: 50.0 mg/kg/injection, schedule: Q01DX009 (ip), vehicle: saline with Tween-80.
The mark [7] stands for this setting: dose: 100.0 mg/kg/injection, schedule: Q01DX009 (ip), vehicle: saline with Tween-80.

Several values for one entry are separate records, joined by “and”; a condition that tells them apart may be missing. Equal values may be shown once. Inconclusive results and toxic doses are left out.

Take `COC(=O)C1(Br)CCC1(Br)C(=O)OC` (configuration not stated): the T/C was 100 % of control (dose: 50.0 mg/kg/injection, schedule: Q01DX009 (ip), vehicle: Klucel (hydroxypropylcellulose) (HPC)); 100 % of control (dose: 100.0 mg/kg/injection, schedule: Q01DX001 (ip), vehicle: other); 109 % of control under setting [1]; 109 % of control under setting [2]; 95 % of control (dose: 200.0 mg/kg/injection, schedule: Q01DX001 (ip), vehicle: other); 113 % of control under setting [3]. For the same molecule, the T/C by setting is: under setting [4], 109 % of control; (dose: 400.0 mg/kg/injection, schedule: Q01DX001 (ip), vehicle: other) 112 % of control; under setting [5], 113 % of control.

With `CC(C)=NNC(=O)C1CCN1C(c1ccccc1)c1ccccc1` (configuration not stated), the T/C (dose: 50.0 mg/kg/injection, schedule: Q01DX001 (ip), vehicle: saline with Tween-80) is 117 % of control and the T/C (dose: 100.0 mg/kg/injection, schedule: Q01DX001 (ip), vehicle: saline with Tween-80) was 102 % of control.

In the case of `Cn1c(=O)[nH]cc([N+](=O)[O-])c1=O`, the T/C is 104 % of control under setting [6]; 105 % of control under setting [7]; 98 % of control (dose: 200.0 mg/kg/injection, schedule: Q01DX009 (ip), vehicle: saline with Tween-80).

As for `C=CC=O`, the T/C (dose: 0.45 mg/kg/injection, schedule: Q01DX009 (ip), vehicle: saline) is 100 % of control; the T/C (dose: 0.45 mg/kg/injection, schedule: Q04DX003 (ip), vehicle: saline) was 109 % of control; the T/C (dose: 0.9 mg/kg/injection, schedule: Q01DX009 (ip), vehicle: saline) is 108 % of control; the T/C (dose: 0.9 mg/kg/injection, schedule: Q04DX003 (ip), vehicle: saline) is 100 % of control; the T/C (dose: 1.8 mg/kg/injection, schedule: Q01DX009 (ip), vehicle: saline) is 112 % of control; the T/C (dose: 1.8 mg/kg/injection, schedule: Q04DX003 (ip), vehicle: saline) was 109 % of control. For the same molecule, the T/C reads like this: (dose: 6.25 mg/kg/injection, schedule: Q01DX009 (ip), vehicle: saline) 109 % of control; (dose: 6.25 mg/kg/injection, schedule: Q04DX003 (ip), vehicle: saline) 104 % of control; (dose: 12.5 mg/kg/injection, schedule: Q04DX003 (ip), vehicle: saline) 100 % of control.

`CCCCn1cnc2c(SC)nc(N)nc21`: the T/C runs as follows: (dose: 66.0 mg/kg/injection, schedule: Q01DX009 (ip), vehicle: Klucel (hydroxypropylcellulose) (HPC)) 95 % of control; under setting [1], 104 % of control; under setting [2], 100 % of control; (dose: 150.0 mg/kg/injection, schedule: Q01DX009 (ip), vehicle: Klucel (hydroxypropylcellulose) (HPC)) 100 % of control; under setting [4], 90 % of control; under setting [5], 90 % of control.

Take `O=C(COCc1ccccc1)OCc1ccccc1`: the T/C reads like this: (dose: 100.0 mg/kg/injection, schedule: Q04DX003 (ip), vehicle: saline) 109 % of control; (dose: 200.0 mg/kg/injection, schedule: Q04DX003 (ip), vehicle: saline) 104 % of control; (dose: 400.0 mg/kg/injection, schedule: Q04DX003 (ip), vehicle: saline) 113 % of control.

Turning to `COc1cccc2c1C(=O)c1c(O)c3c(c(O)c1C2=O)C[C@@](O)(C(C)=O)C[C@@H]3OC1CC(NC=O)C(O)C(C)O1` (some centres not stated), the T/C is 108 % of control and 110 % of control (dose: 0.25 mg/kg/injection, schedule: Q01DX009 (ip), vehicle: water); 110 % of control and 117 % of control (dose: 0.5 mg/kg/injection, schedule: Q01DX009 (ip), vehicle: water); 107 % of control (dose: 1.0 mg/kg/injection, schedule: Q01DX009 (ip), vehicle: water); 186 % of control (dose: 2.0 mg/kg/injection, schedule: Q01DX009 (ip), vehicle: water); 205 % of control (dose: 4.0 mg/kg/injection, schedule: Q01DX009 (ip), vehicle: water); 169 % of control (dose: 8.0 mg/kg/injection, schedule: Q01DX009 (ip), vehicle: water).

Take `S=C(NNc1ccccc1)NC1CCCCC1`: the T/C runs as follows: (dose: 100.0 mg/kg/injection, schedule: Q01DX001 (ip), vehicle: Klucel (hydroxypropylcellulose) (HPC)) 100 % of control; under setting [1], 86 % of control; under setting [2], 110 % of control; (dose: 200.0 mg/kg/injection, schedule: Q01DX001 (ip), vehicle: Klucel (hydroxypropylcellulose) (HPC)) 100 % of control; under setting [3], 90 % of control; under setting [4], 105 % of control. In addition, the T/C runs as follows: (dose: 400.0 mg/kg/injection, schedule: Q01DX001 (ip), vehicle: Klucel (hydroxypropylcellulose) (HPC)) 104 % of control; (dose: 400.0 mg/kg/injection, schedule: Q01DX009 (ip), vehicle: Klucel (hydroxypropylcellulose) (HPC)) 100 % of control; under setting [5], 110 % of control.

As to `CC12CCC3c4ccc(OP(=O)(N5CC5)N5CC5)cc4CCC3C1CCC2O` (configuration not stated), the T/C (dose: 12.5 mg/kg/injection, schedule: Q01DX009 (ip), vehicle: saline with Tween-80) is 102 % of control; the T/C (dose: 25.0 mg/kg/injection, schedule: Q01DX009 (ip), vehicle: saline with Tween-80) is 93 % of control; the T/C under setting [6] was 121 % of control; the T/C under setting [7] was 121 % of control.

As to `O=NN(CCF)C(=O)NC1CCC(NC(=O)N(CCF)N=O)CC1` (configuration not stated), the T/C is, setting by setting: (dose: 16.5 mg/kg/injection, schedule: Q04DX003 (ip), vehicle: saline with Tween-80) 186 % of control; (dose: 33.0 mg/kg/injection, schedule: Q04DX003 (ip), vehicle: saline with Tween-80) 272 % of control; (dose: 66.0 mg/kg/injection, schedule: Q04DX003 (ip), vehicle: saline with Tween-80) 272 % of control; (dose: 100.0 mg/kg/injection, schedule: Q04DX003 (ip), vehicle: saline with Tween-80) 272 % of control; (dose: 132.0 mg/kg/injection, schedule: Q04DX003 (ip), vehicle: alcohol) 272 % of control; (dose: 200.0 mg/kg/injection, schedule: Q04DX003 (ip), vehicle: saline with Tween-80) 200 % of control.
